One assay deals with T1, InhA (Mycobacterium tuberculosis, UniProt P9WGR1).
T1 construct: made in house; host or cells: E. coli
Put plainly: Mycobacterium tuberculosis InhA Inhibition Assay (Enzyme Assay). The class given is biochemical. Conditions: 5 nM InhA, 50 μM DDCoA, 50 μM NADH, PIPES buffer pH 6.8, initial velocities of NADH consumption. Here is the method:
InhA is able to reduce 2-trans enoyl-CoA esters with concomitant oxidation of NADH to NAD^+. The assay format is based on the kinetic detection of NADH consumption.
Assay for InhA inhibition is carried out with mycobacterium recombinant protein expressed and purified form E. coli. Standard assay conditions for the determination of kinetic constants and inhibitors activity use 5 nM of InhA, 50 μM of Dodecenoyl-CoA synthesized and purified as described by Quémard et al (DDCoA) and 50 μM of NADH as substrates, and it is carried out in 30 mM PIPES buffer pH 6.8, containing 0.05% of BSA. […] Triclosan is used as positive control in every experiment. One μl of compounds is added to the wells containing 25 μl of the DDCoA+NADH mix, the reaction is started by adding 50 μl of the enzyme solution. Fluorescence from NADH is followed at room temperature during 20 minutes in a fluorescent plate reader (excitation at 340 nm; emission at 480 nm). IC50 values are determined using initial velocities of NADH consumption. • Quémard A, Sacchettini J C, Dessen A, et al. Enzymatic characterization of the target for isoniazid in Mycobacterium tuberculosis. Biochemistry 1995; 34:8235-41. Results of the Mycobacterium tuberculosis InhA Inhibition Assay (Enzyme Assay)

The subject of assay [1] is Mycobacterium tuberculosis H37Rv. In words: Mycobacterium tuberculosis H37Rv Inhibition Assay (Whole Cell Assay). Conditions: ATCC 25618 / H37Rv, H37Rv strain (ATCC25618), Middlebrook 7H9, six days at 37° C., resazurin fluorescence after 48 hours. The class given is cell-based. (The colour change of resazurin is a common sign of viable cells or microbes.)

Consider 28 compounds from US9334265B2, “3-amino-pyrazole derivatives useful against tuberculosis” (GLAXO GROUP LIMITED, priority 2010, dated 2016).

≈ marks a conversion by molar mass, not a printed value. Where “and” joins values, the source holds several entries; their conditions need not be identical. Identical values can stand only once. Like-named read-outs stand apart in the source and are kept apart here. Some results are limits rather than exact numbers.

T1 sequence (P9WGR1 whole entry, looked up): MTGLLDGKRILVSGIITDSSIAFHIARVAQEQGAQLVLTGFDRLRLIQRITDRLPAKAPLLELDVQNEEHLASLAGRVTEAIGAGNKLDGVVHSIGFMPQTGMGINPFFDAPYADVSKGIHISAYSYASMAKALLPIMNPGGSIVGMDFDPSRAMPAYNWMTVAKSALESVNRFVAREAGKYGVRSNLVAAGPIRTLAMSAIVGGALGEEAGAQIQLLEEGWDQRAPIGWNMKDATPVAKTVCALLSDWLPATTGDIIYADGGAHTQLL

One may read the IC50 as the point on the concentration scale where inhibition reaches its midpoint. By MIC is commonly meant the smallest concentration in the dilution series that meets the test's criterion for growth inhibition. `Cc1ccn(C(C)c2nnc(Nc3ccn(Cc4ncccc4F)n3)s2)n1` (racemic) [Example 13, N-{1-[(3-fluoro-2-pyridinyl)methyl]-1H-pyrazol-3-yl}-5-[1-(3-methyl-1H-pyrazol-1-yl)ethyl]-1,3,4-thiadiazol-2-amine]: at InhA (read-out: IC50 value), the IC50 was at most 130 nM. The MIC in assay [1] is at most 4 µM.
With `Cc1csc(C(C)(O)c2nnc(Nc3ccn(Cc4csc(C)n4)n3)s2)n1` (racemic) [Example 21, 1-(4-methyl-1,3-thiazol-2-yl)-1-[5-({1-[(2-methyl-1,3-thiazol-4-yl)methyl]-1H-pyrazol-3-yl}amino)-1,3,4-thiadiazol-2-yl]ethanol], at InhA (read-out: IC50 value), the IC50 is at most 119 nM. In addition, the MIC in assay [1] is at most 1 µM.
Consider `Cc1csc(C(C)(O)c2nnc(Nc3ccn(Cc4ncccc4F)n3)s2)n1` (racemic) [Example 38, 1-[5-({1-[(3-fluoro-2-pyridinyl)methyl]-1H-pyrazol-3-yl}amino)-1,3,4-thiadiazol-2-yl]-1-(4-methyl-1,3-thiazol-2-yl)ethanol], for which the IC50 on InhA (read-out: IC50 value) is at most 120 nM. In assay [1], this compound showed an MIC of at most 1 µM.
In the case of `Cc1ccn([C@H](C)c2nnc(Nc3ccn(Cc4ncccc4F)n3)s2)n1` (single isomer, unassigned) [Example 39], the IC50 against InhA (IC50 value) was 260 to 1300 nM. In assay [1], this compound showed an MIC of over 10 µM.
The matching figures for `Cc1ccn([C@@H](C)c2nnc(Nc3ccn(Cc4ncccc4F)n3)s2)n1` (single isomer, unassigned) [Example 40]: at most 130 nM and at most 4 µM.
For the compound `Cc1csc([C@](C)(O)c2nnc(Nc3ccn(Cc4ncccc4F)n3)s2)n1` (single isomer, unassigned) [Example 41], the IC50 against InhA (IC50 value) was at most 120 nM. Besides, in assay [1], the MIC was at most 1 µM.
On the same counts, the results for `Cc1csc([C@@](C)(O)c2nnc(Nc3ccn(Cc4ncccc4F)n3)s2)n1` (single isomer, unassigned) [Example 42] are 240 to 1200 nM and over 10 µM.
On to `Cc1csc([C@](C)(O)c2nnc(Nc3ccn(Cc4csc(C)n4)n3)s2)n1` (single isomer, unassigned) [Example 43], for which the IC50 against InhA (IC50 value) was at most 119 nM.
Regarding `Cc1csc([C@@](C)(O)c2nnc(Nc3ccn(Cc4csc(C)n4)n3)s2)n1` (single isomer, unassigned) [Example 44], on InhA (IC50 value), the IC50 was 238 to 1190 nM. The compound also gave an MIC in assay [1] of over 10 µM.
Turning to `Cc1cccc(Cn2ccc(Nc3nnc(C(C)n4nc(C)cc4C)s3)n2)n1` (stereo not drawn) [Example 1, 5-[1-(3,5-dimethyl-1H-pyrazol-1-yl)ethyl]-N-{1-[(6-methyl-2-pyridinyl)methyl]-1H-pyrazol-3-yl}-1,3,4-thiadiazol-2-amine], the half-maximal inhibitory concentration (IC50) on InhA (read-out: IC50 value) was at most 127 nM. The compound further showed an MIC in assay [1] of over 10 µM.
The matching figures for `Cc1cc(C)n(C(C)c2nnc(Nc3ccn(Cc4nccc(C)c4F)n3)s2)n1` (stereo not drawn) [Example 2, 5-[1-(3,5-dimethyl-1H-pyrazol-1-yl)ethyl]-N-{1-[(3-fluoro-4-methyl-2-pyridinyl)methyl]-1H-pyrazol-3-yl}-1,3,4-thiadiazol-2-amine]: at most 121 nM and at most 4 µM.
In the case of `Cc1ccn(C(C)c2nnc(Nc3ccn(Cc4nccc(C)c4F)n3)s2)n1` (stereo not drawn) [Example 3, N-{1-[(3-fluoro-4-methyl-2-pyridinyl)methyl]-1H-pyrazol-3-yl}-5-[1-(3-methyl-1H-pyrazol-1-yl)ethyl]-1,3,4-thiadiazol-2-amine], the IC50 on InhA (read-out: IC50 value) is at most 125 nM. Further, the MIC in assay [1] was over 10 µM.
On the same counts, the results for `Cc1cc(C)n(C(C)c2nnc(Nc3ccn(Cc4cccnc4)n3)s2)n1` (stereo not drawn) [Example 4, 5-[1-(3,5-dimethyl-1H-pyrazol-1-yl)ethyl]-N-[1-(3-pyridinylmethyl)-1H-pyrazol-3-yl]-1,3,4-thiadiazol-2-amine] are at most 131 nM and over 10 µM.
Take `Cc1cc(C)n(C(C)c2nnc(Nc3ccn(Cc4ccccn4)n3)s2)n1` (stereo not drawn) [Example 5, 5-[1-(3,5-dimethyl-1H-pyrazol-1-yl)ethyl]-N-[1-(2-pyridinylmethyl)-1H-pyrazol-3-yl]-1,3,4-thiadiazol-2-amine]: on InhA (IC50 value), the IC50 fell in the range of 263 to 1310 nM. The same compound came in with an MIC in assay [1] of over 10 µM.
As to `Cc1cc(C)n(C(C)c2nnc(Nc3ccn(Cc4ncccc4F)n3)s2)n1` (stereo not drawn) [Example 6, 5-[1-(3,5-dimethyl-1H-pyrazol-1-yl)ethyl]-N-{1-[(3-fluoro-2-pyridinyl)methyl]-1H-pyrazol-3-yl}-1,3,4-thiadiazol-2-amine], at InhA (read-out: IC50 value), the half-maximal inhibitory concentration (IC50) was at most 125 nM. In assay [1], this compound had an MIC of at most 4 µM.
The matching figures for `Cc1cc(C)n(C(C)c2nnc(Nc3ccn(Cc4cccnc4F)n3)s2)n1` (stereo not drawn) [Example 7, 5-[1-(3,5-dimethyl-1H-pyrazol-1-yl)ethyl]-N-{1-[(2-fluoro-3-pyridinyl)methyl]-1H-pyrazol-3-yl}-1,3,4-thiadiazol-2-amine]: at most 125 nM and 4 to 10 µM (≈ 1.59 to 3.98 µg/mL).
Turning to `Cc1cc(C)n(C(C)c2nnc(Nc3ccn(Cc4cnc(C)c(Cl)c4)n3)s2)n1` (stereo not drawn) [Example 8, N-{1-[(5-chloro-6-methyl-3-pyridinyl)methyl]-1H-pyrazol-3-yl}-5-[1-(3,5-dimethyl-1H-pyrazol-1-yl)ethyl]-1,3,4-thiadiazol-2-amine], the IC50 at InhA (read-out: IC50 value) was at most 117 nM. The same compound gave an MIC in assay [1] of over 10 µM.
As to `Cc1cc(C)n(C(C)c2nnc(Nc3ccn(Cc4ncc(Cl)cc4Cl)n3)s2)n1` (stereo not drawn) [Example 9, N-{1-[(3,5-dichloro-2-pyridinyl)methyl]-1H-pyrazol-3-yl}-5-[1-(3,5-dimethyl-1H-pyrazol-1-yl)ethyl]-1,3,4-thiadiazol-2-amine], on InhA (read-out: IC50 value), the IC50 was at most 111 nM. In assay [1], this compound yielded an MIC of over 10 µM.
With `Cc1ccn(C(C)c2nnc(Nc3ccn(Cc4cccnc4F)n3)s2)n1` (stereo not drawn) [Example 10, N-{1-[(2-fluoro-3-pyridinyl)methyl]-1H-pyrazol-3-yl}-5-[1-(3-methyl-1H-pyrazol-1-yl)ethyl]-1,3,4-thiadiazol-2-amine], the IC50 on InhA (IC50 value) was 130 to 260 nM. In addition, in assay [1], the MIC was over 10 µM.
Regarding `CCOc1ncccc1Cn1ccc(Nc2nnc(C(C)n3nc(C)cc3C)s2)n1` (stereo not drawn) [Example 11, 5-[1-(3,5-dimethyl-1H-pyrazol-1-yl)ethyl]-N-(1-{[2-(ethyloxy)-3-pyridinyl]methyl}-1H-pyrazol-3-yl)-1,3,4-thiadiazol-2-amine], the IC50 on InhA (IC50 value) is over 1180 nM. This compound yielded an MIC in assay [1] of over 10 µM.
With `Cc1csc(C(C)(O)c2nnc(Nc3ccn(Cc4ncc(F)cc4F)n3)s2)n1` (stereo not drawn) [Example 12, 1-[5-({1-[(3,5-difluoro-2-pyridinyl)methyl]-1H-pyrazol-3-yl}amino)-1,3,4-thiadiazol-2-yl]-1-(4-methyl-1,3-thiazol-2-yl)ethanol], the IC50 against InhA (IC50 value) was in the range of 115 to 230 nM. Further, in assay [1], the MIC was at most 4 µM.
For `Cc1csc(C(C)(O)c2nnc(Nc3ccn(Cc4ncccc4C)n3)s2)n1` (stereo not drawn) [Example 14, 1-[5-({1-[(3-methyl-2-pyridinyl)methyl]-1H-pyrazol-3-yl}amino)-1,3,4-thiadiazol-2-yl]-1-(4-methyl-1,3-thiazol-2-yl)ethanol], on InhA (IC50 value), the half-inhibitory concentration (IC50) is ≤ 121 nM and 9.67 nM. In assay [1], this compound showed an MIC of at most 1 µM.
For `Cc1csc(C(C)(O)c2nnc(Nc3ccn(Cc4ccc5ccccc5n4)n3)s2)n1` (stereo not drawn) [Example 15, 1-(4-methyl-1,3-thiazol-2-yl)-1-(5-{[1-(2-quinolinylmethyl)-1H-pyrazol-3-yl]amino}-1,3,4-thiadiazol-2-yl)ethanol], the IC50 at InhA (read-out: IC50 value) was at most 111 nM. In assay [1], this compound gave an MIC of at most 4 µM.
`Cc1csc(C(C)(O)c2nnc(Nc3ccn(Cc4ncccc4O)n3)s2)n1` (stereo not drawn) [Example 16, 2-{[3-({5-[1-hydroxy-1-(4-methyl-1,3-thiazol-2-yl)ethyl]-1,3,4-thiadiazol-2-yl}amino)-1H-pyrazol-1-yl]methyl}-3-pyridinol] displayed an MIC in assay [1] of over 10 µM.
In the case of `Cc1csc(C(C)(O)c2nnc(Nc3ccn(Cc4csc(N)n4)n3)s2)n1` (stereo not drawn) [Example 17, 1-[5-({1-[(2-amino-1,3-thiazol-4-yl)methyl]-1H-pyrazol-3-yl}amino)-1,3,4-thiadiazol-2-yl]-1-(4-methyl-1,3-thiazol-2-yl)ethanol], on InhA (IC50 value), the IC50 lay within 238 to 1190 nM. The same compound gave an MIC in assay [1] of over 10 µM.
Take `Cc1csc(C(C)(O)c2nnc(Nc3ccn(Cc4cccc(F)n4)n3)s2)n1` (stereo not drawn) [Example 18, 1-[5-({1-[(6-fluoro-2-pyridinyl)methyl]-1H-pyrazol-3-yl}amino)-1,3,4-thiadiazol-2-yl]-1-(4-methyl-1,3-thiazol-2-yl)ethanol]: the IC50 at InhA (read-out: IC50 value) is at most 120 nM. The same compound returned an MIC in assay [1] of at most 1 µM.
On the same counts, the results for `Cc1csc(C(C)(O)c2nnc(Nc3ccn(Cc4nccc5ccccc45)n3)s2)n1` (stereo not drawn) [Example 19, 1-(5-{[1-(1-isoquinolinylmethyl)-1H-pyrazol-3-yl]amino}-1,3,4-thiadiazol-2-yl)-1-(4-methyl-1,3-thiazol-2-yl)ethanol] are at most 111 nM and 4 to 10 µM (≈ 1.8 to 4.5 µg/mL).
Consider `Cc1csc(C(C)(O)c2nnc(Nc3ccn(Cc4cccc5cccnc45)n3)s2)n1` (stereo not drawn) [Example 20, 1-(4-methyl-1,3-thiazol-2-yl)-1-(5-{[1-(8-quinolinylmethyl)-1H-pyrazol-3-yl]amino}-1,3,4-thiadiazol-2-yl)ethanol], for which, at InhA (read-out: IC50 value), the IC50 is at most 111 nM. The MIC in assay [1] is at most 4 µM.
